Test results published in patent publication US20090172831A1, “Methods for the production of plants resistant to HPPD herbicides” (Syngenta Limited, priority 2000, published 2009).

Target: T1, Arabidopsis HPPD (Arabidopsis thaliana, UniProt P93836)
T1 construct: made in house; host or cells: E. coli BL21 (DE3) codon+ RP
T1 sequence (P93836 1-445): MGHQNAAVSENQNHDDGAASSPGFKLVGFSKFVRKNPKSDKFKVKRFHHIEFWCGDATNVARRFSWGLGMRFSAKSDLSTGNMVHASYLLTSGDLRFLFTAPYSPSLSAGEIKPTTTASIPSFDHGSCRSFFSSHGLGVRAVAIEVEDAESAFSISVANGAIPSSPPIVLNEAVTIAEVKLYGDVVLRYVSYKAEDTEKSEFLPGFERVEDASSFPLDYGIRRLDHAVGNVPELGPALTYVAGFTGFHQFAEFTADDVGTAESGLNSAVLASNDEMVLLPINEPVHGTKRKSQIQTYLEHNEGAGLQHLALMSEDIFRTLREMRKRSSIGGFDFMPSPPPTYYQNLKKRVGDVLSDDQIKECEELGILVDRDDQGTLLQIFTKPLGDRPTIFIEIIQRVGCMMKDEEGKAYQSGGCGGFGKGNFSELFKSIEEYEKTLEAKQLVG
Experiment: Rate of binding (kon) by radiolabelled inhibitor and separation of bound from free
Excerpt: Alternatively estimates of kon values can be determined more directly by mixing HPPD with radio or otherwise labelled herbicide inhibitor and monitoring the progress of the binding reaction, optionally by rapidly isolating the enzyme inhibitor complex and/or by any one of a number of methods (for example fluorimetry, EPR, NMR, radiodetection etc). For example, the reaction with HPPD may be started by addition of radiolabelled herbicide, allowed to proceed for a series of different times and rapidly quenched by addition and mixing with a large excess of unlabelled inhibitor. In this case the extent of binding at different times may, for example, be monitored by using ultrafiltration, binding to filters or gel filtration to separate radiolabel-bound to HPPD from unbound label which fractions can then each be quantitated by scintillation counting. […]
The measurements of koff are based on physical rather than assay-based measurements. Similarly, kon rates can also be measured by a direct physical method, in this case the use of radiolabelled inhibitor and physical separation of protein bound from free inhibitor. […] The rates of binding determined on the basis of measurement of the amount of radiolabelled inhibitor bound after various times of reaction are found to correlate very well with measurements based upon assay-based measurements of the rate of decline of enzyme activity. […]

CS(=O)(=O)c1ccc(C(=O)C2C(=O)CCCC2=O)c([N+](=O)[O-])c1 [Structure I, 2-(Nitro-4-methanesulphonylbenzoyl)-cyclohexane-1,3-dione, reference compound]
rate constant of subsequent much slower binding to the remaining site (25% v/v glycerol): ~1000 M⁻¹ s⁻¹

Cc1nc(C(F)(F)F)ccc1C(=O)C1C(=O)C2CCC(C2)C1=O (centres unmarked) [Structure II]
kon (without 25% v/v glycerol): 800000 M⁻¹ s⁻¹
